Consider 1 compound from patent publication US20250100963A1, “SULFONATED AND PHOSPHORYLATED AROMATIC MOLECULES” (Xavier University of Louisiana, priority 2023, published 2025).

By IC50 is commonly meant the concentration that inhibits the measured activity by half. As usually defined, the Km is the substrate concentration at which the rate is half of its maximum.

What all share (format): biochemical
One assay concerns the target Human FXIa (Homo sapiens, UniProt P03951). The assay can be described thus: Direct inhibition of FXIa, chromogenic substrate hydrolysis assay. The conditions noted are these: Tris-HCl buffer. How it is done:
Direct inhibitions of thrombin (FIIa), factor VIIa (FVIIa), factor IXa (FIXa), factor Xa (FXa), FXIa, factor XIIa (FXIIa), trypsin and chymotrypsin were evaluated using the corresponding chromogenic substrate hydrolysis assays as previously reported. Briefly, to each well of a 96-well microplate containing 85-185 μl of […] Tris buffer containing 100 mM NaCl, 2.5 mM CaCl2, 0.1% PEG 8000, and 0.05% tween 80 at 25 (thrombin) or 37° C. (FVIIa, FIXa, FXa, FXIa, FXIIa, chymotrypsin, and trypsin) were added 5 μl of enzyme (thrombin, FVIIa, FIXa, FXa, FXIa, FXIIa, chymotrypsin, and trypsin) and 5 μl of the inhibitor. Following an incubation period of 5 min, the appropriate chromogenic substrates (Spectrozyme TH, Spectrozyme FIXa, Spectrozyme FXa, S-2366, Spectrozyme FXIIa and S-2222) were added and the residual enzyme activity was measured from the initial rate of increase in absorbance at 405 nm. Relative residual enzyme activity as a function of the inhibitor concentration was fitted using Logistic Equation (1) to obtain the IC50 (potency), A Y % (efficacy) of enzyme inhibition, and HS (Hill slope). The concentrations of enzymes and substrates in microplate cells were: 6 nM and 50 μM for thrombin; 1.09 nM and 125 μM for FXa; 5 nM and 125 μM for FXIIa; 89 nM and 850 μM for FIXa; 8 nM and 1000 µM for FVIIa (along with 40 nM recombinant tissue factor); 72.5 ng/ml and 80 μM for bovine trypsin; and 500 ng/ml and 240 μM for bovine chymotrypsin.

In assay [1] the target is T1, CatG (Homo sapiens, UniProt P08311).
T1 sequence (P08311 21-244): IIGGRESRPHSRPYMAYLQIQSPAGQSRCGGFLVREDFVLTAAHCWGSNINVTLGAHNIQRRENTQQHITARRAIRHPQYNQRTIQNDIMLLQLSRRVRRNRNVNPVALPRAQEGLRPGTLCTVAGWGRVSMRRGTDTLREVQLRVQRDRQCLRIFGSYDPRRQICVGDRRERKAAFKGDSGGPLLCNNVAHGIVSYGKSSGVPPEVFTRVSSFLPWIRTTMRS
The assay can be described thus: Michaelis-Menten kinetics of chromogenic substrate (S-7388) hydrolysis by CatG. How it is done: The initial rate of the hydrolysis of the chromogenic substrate by CatG was monitored from the linear increase in absorbance corresponding to less than 10% consumption of substrate at 37° C. in pH 7.4 20 mM Tris buffer containing 100 mM NaCl, 2.5 mM CaCl2, 0.1% PEG 8000 and 0.05% tween 80. The initial rate was measured at various substrate concentrations ([…]) at fixed enzyme concentration (30 nM), and fixed sulfonated compounds concentrations (0, 25, 50, 100, 200, 400, and 800 nM). The data were fitted by the Michaelis-Menten Equation (3) to determine the KM (substrate affinity) and VMAX (maximum reaction velocity).
To understand the mechanistic basis of inhibition, Michaelis-Menten kinetics of S-7388 hydrolysis by CatG was performed in the presence of inhibitor 2 at pH 7.4 and 37° C. […] Table 5 and FIG. 5.

The target of assay [2] is T1, CatG. The assay can be described thus: CatG-mediated degradation of laminin, SDS-PAGE. The conditions noted are these: inhibitor 10-1000 μM, CatG 0.8 μM, 60 min. Here is the method: The method further comprises inhibition of CatG-mediated degradation of laminin. Inhibition of CatG cleavage of laminin by sulfonated or phosphorylated compounds was studied using SDSPAGE. Briefly, CatG (0.8 μM) was incubated with different concentrations of the inhibitor (final concentrations; 0 μM, 10 μM, […] and 1000 μM), and laminin (20 μg). Following incubation for 60 min, the samples were quenched using SDS-PAGE loading buffer containing DTT and subjected to electrophoresis on 10% SDS-PAGE pre-cast gels. The gels were visualized by silver staining. […] In fact, based on their in vitro properties, it was reasoned that these inhibitors could protect extracellular matrix components from proteolysis mediated by proteinases activated during the inflammatory process including CatG. Accordingly, the in vitro effect of compound of Formula II on the CatG-mediated proteolysis of laminin, a non-collagenous component of ECM and basement membranes was studied. […] Thus, SDS-PAGE analyses indicate that sulfonated molecule inhibition of CatG is physiologically relevant.
Inhibition of CatG cleavage of laminin by sulfonated compounds was studied using SDSPAGE. Briefly, CatG (0.8 μM) was incubated with different concentrations of the inhibitor (final concentrations; 0 μM, 10 μM, 100 μM and 1000 μM), and laminin (20 μg). […]

Each structure is given as a SMILES string.

Chain of Human FXIa (P03951 388-625): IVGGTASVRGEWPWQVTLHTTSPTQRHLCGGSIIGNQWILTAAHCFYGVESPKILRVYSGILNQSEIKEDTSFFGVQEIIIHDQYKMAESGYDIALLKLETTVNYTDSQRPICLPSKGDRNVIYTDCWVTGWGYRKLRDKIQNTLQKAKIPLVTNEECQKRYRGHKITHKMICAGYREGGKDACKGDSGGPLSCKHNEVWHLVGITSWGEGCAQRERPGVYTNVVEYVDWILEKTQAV
Chain of Human FXIa (P03951 19-387 partner): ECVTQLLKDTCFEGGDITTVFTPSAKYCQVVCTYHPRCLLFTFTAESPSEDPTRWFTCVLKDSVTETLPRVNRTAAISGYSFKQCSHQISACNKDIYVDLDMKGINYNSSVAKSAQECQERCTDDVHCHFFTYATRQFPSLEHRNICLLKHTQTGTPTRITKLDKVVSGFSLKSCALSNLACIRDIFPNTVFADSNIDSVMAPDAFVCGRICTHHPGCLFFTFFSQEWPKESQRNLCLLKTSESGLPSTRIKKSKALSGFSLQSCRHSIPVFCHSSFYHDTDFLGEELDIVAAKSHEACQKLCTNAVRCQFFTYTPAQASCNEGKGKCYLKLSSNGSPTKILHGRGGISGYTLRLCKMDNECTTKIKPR

`O=C(Nc1cc(C(=O)Nc2ccc(S(=O)(=O)O)cc2S(=O)(=O)O)cc(C(=O)Nc2ccc(S(=O)(=O)O)cc2S(=O)(=O)O)c1)Nc1cc(C(=O)Nc2ccc(S(=O)(=O)O)cc2S(=O)(=O)O)cc(C(=O)Nc2ccc(S(=O)(=O)O)cc2S(=O)(=O)O)c1` [Formula II, 4,4′,4″,4′-((5,5′-(carbonylbis(azanediyl))bis(isophthaloyl))tetrakis(azanediyl))tetrakis(benzene-1,3-disulfonic acid)]: on Human FXIa, the concentration for half-maximal inhibition (IC50) is over 500 µM. At CatG [1] (0 vs 800 nM inhibitor), the “Decrease of VMAX, absence of inhibitor vs 800 nM” value is about 3 fold. Moreover, the Km on CatG [1] (Formula II 40 nM) worked out at 1200 ± 300 µM; on CatG [1] (Formula II 100 nM), 1290 ± 190 µM; on CatG [1] (Formula II 400 nM), 1400 ± 220 µM; on CatG [1] (Formula II 800 nM), 1320 ± 207 µM. For the same compound, the Vmax at CatG [1] (Formula II 40 nM) was found to be 26.1 ± 2.5 mAU/min; at CatG [1] (Formula II 100 nM), 17.6 ± 1.1 mAU/min; on CatG [1] (Formula II 400 nM), 11.4 ± 0.8 mAU/min; at CatG [1] (Formula II 800 nM), 10.6 ± 0.95 mAU/min; at CatG [1] (Formula II 800 nM, listed as inhibitor 2), 10.6±0.95 mAU/min. Besides, the “KM for S-7388 in the presence or absence of inhibitor” value on CatG [1] (inhibitor 0-800 nM, pH 7.4, 37° C.) is “essentially unchanged”. For the same compound, the “Protection of laminin from cleavage by CatG” value on CatG [2] was “protected completely”.
